{"source": "paper PMC9396657", "about": "“Directed Evolution of (R)-2-Hydroxyglutarate Dehydrogenase Improves 2-Oxoadipate Reduction by 2 Orders of Magnitude” (ACS Synthetic Biology, 2022)", "experiment_in_all_cases": "NADH oxidation at […] nm, initial rates", "type_in_all_cases": "biochemical", "key": {"Hgdh [1]": {"biological_target": "T1, Hgdh (Acidaminococcus fermentans, UniProt D2RJU7, V11K/V11M/A206V/A214D/K307I, form not given)", "T1 construct": "full length, codon-optimized, expressed in E. coli BL21(DE3) from pET-28b, extra Ala after start Met, C-terminal thrombin site and His tag (kept), homodimer of 75 kDa", "T1 sequence (D2RJU7 whole entry, stated change not applied)": "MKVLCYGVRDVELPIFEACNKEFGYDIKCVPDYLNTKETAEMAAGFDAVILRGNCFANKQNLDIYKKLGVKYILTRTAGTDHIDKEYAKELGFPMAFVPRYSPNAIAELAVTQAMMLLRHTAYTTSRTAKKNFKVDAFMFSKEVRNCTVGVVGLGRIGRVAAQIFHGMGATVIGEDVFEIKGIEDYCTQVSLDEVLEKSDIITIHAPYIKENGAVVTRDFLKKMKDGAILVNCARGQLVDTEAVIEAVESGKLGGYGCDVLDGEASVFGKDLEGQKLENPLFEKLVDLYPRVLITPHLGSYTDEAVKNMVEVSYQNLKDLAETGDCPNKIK", "details": "0.25 mM NADH, 50 mM phosphate pH 8, 25 °C, apparent, residue 11 contradictory: V11K, A2 is the extra cloning Ala"}, "Hgdh [2]": {"biological_target": "T2, Hgdh (Acidaminococcus fermentans, UniProt D2RJU7)", "T2 construct": "full length, codon-optimized, expressed in E. coli BL21(DE3) from pET-28b, extra Ala after start Met, C-terminal thrombin site and His tag (kept), homodimer of 75 kDa", "details": "0.25 mM NADH, 50 mM phosphate pH 8, 25 °C; apparent (Km of NADH not determined)"}, "Hgdh [3]": {"biological_target": "T3, Hgdh (Acidaminococcus fermentans, UniProt D2RJU7, V11K/V11M/A206V/A214V/V312I, form not given)", "T3 construct": "full length, codon-optimized, expressed in E. coli BL21(DE3) from pET-28b, extra Ala after start Met, C-terminal thrombin site and His tag (kept), homodimer of 75 kDa", "T3 sequence (D2RJU7 whole entry, stated change not applied)": "as above", "details": "0.25 mM NADH, 50 mM phosphate pH 8, 25 °C, apparent, residue 11 contradictory: V11K, A2 is the extra cloning Ala"}, "Hgdh [4]": {"biological_target": "T4, Hgdh (Acidaminococcus fermentans, UniProt D2RJU7, V11K/V11M/A206V/A214V/E304K, form not given)", "T4 construct": "full length, codon-optimized, expressed in E. coli BL21(DE3) from pET-28b, extra Ala after start Met, C-terminal thrombin site and His tag (kept), homodimer of 75 kDa", "T4 sequence (D2RJU7 whole entry, stated change not applied)": "as above", "details": "0.25 mM NADH, 50 mM phosphate pH 8, 25 °C, apparent, residue 11 contradictory: V11K, A2 is the extra cloning Ala"}}}
{"smiles": "O=C(O)CCCC(=O)C(=O)O", "note": "[2-oxoadipate]", "values": [{"measurement": "Km", "setting": "Hgdh [1]", "value": "3.05 ± 0.24", "unit": "mM"}, {"measurement": "Km", "setting": "Hgdh [2]", "value": "2.96 ± 0.24", "unit": "mM"}, {"measurement": "Km", "setting": "Hgdh [3]", "value": "9.72 ± 0.67", "unit": "mM"}, {"measurement": "Km", "setting": "Hgdh [4]", "value": "4.18 ± 0.2", "unit": "mM"}]}
